# How the values were obtained:
# [1] = Changelian et al., 2003; cited from earlier work
# JAK3 = target: T1, JAK3 (Homo sapiens, UniProt P52333); assay: kinobeads assay (competition with affinity matrix in mixed Molt4/Ramos cell lysate, dot blot detection), JAK3; assay type: binding; conditions: activity level
# T1 construct: endogenous in cells; host or cells: Mixed Molt4 / Ramos cell lysate (1:2)
# T1 sequence (P52333 1-1124): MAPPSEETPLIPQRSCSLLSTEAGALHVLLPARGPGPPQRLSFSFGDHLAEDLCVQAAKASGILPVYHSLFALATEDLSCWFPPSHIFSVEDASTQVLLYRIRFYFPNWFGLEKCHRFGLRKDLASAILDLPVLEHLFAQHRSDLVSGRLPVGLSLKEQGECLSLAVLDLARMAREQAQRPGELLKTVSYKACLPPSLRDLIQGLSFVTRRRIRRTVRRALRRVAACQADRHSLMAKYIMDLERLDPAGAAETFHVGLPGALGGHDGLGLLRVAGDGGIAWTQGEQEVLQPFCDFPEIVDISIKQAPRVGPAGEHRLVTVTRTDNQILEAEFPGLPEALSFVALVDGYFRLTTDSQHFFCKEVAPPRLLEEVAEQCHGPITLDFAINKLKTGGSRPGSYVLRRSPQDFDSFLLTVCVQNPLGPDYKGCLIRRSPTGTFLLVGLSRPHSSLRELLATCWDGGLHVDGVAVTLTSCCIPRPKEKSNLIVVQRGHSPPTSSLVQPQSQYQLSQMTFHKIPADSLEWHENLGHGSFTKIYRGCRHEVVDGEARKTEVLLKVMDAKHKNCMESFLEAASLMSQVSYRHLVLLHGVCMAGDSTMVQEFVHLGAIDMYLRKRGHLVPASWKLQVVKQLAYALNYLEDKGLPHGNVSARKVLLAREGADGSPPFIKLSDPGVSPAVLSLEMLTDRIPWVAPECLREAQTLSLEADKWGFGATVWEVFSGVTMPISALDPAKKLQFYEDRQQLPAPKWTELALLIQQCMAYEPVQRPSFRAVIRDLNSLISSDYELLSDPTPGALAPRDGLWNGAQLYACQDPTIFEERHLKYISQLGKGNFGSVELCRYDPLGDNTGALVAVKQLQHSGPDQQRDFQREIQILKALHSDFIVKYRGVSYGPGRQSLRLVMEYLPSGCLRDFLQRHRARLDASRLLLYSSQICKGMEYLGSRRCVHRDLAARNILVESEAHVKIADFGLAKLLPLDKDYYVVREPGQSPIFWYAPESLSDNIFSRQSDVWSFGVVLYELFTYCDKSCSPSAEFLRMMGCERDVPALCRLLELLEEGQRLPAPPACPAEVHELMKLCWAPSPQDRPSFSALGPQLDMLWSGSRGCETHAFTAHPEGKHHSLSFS
# Method: (§1) The compounds of the present invention as described in the previous examples were tested in a kinobeads assay as described for ZAP-70 (WO-A 2007/137867). Briefly, test compounds (at various concentrations) and the affinity matrix with the immobilized aminopyrido-pyrimidine ligand 24 were added to cell lysate aliquots and allowed to bind to the proteins in the lysate sample. After the incubation time the beads with captured proteins were separated from the lysate. Bound proteins were then eluted and the presence of, JAK2 and JAK3 was detected and quantified using specific antibodies in a dot blot procedure and the Odyssey infrared detection system. Dose response curves for individual kinases were generated and IC50 values calculated. Kinobeads assays for ZAP-70 (WO-A 2007/137867) and for kinase selectivity profiling (WO-A 2006/134056) have been previously described.
# (§2) 5× DP buffer: 250 mM Tris-HCl pH 7.4, 25% Glycerol, 7.5 mM MgCl2, 750 mM NaCl, 5 mM Na3VO4; filter the 5× DP buffer through a 0.22 μm filter and store in aliquots at −80° C. The 5× DP buffer is diluted with H2O to 1× DP buffer containing 1 mM DTT and 25 mM NaF.
# (§3) Stock solutions of test compounds were prepared in DMSO. In a 96 well plate 30 μl solution of diluted test compounds at 5 mM in DMSO were prepared. Starting with this solution a 1:3 dilution series (9 steps) was prepared. For control experiments (no test compound) a buffer containing 2% DMSO was used.
# (§4) Molt4 cells (ATCC catalogue number CRL-1582) and Ramos cells (ATCC catalogue number CRL-1596) were grown in 1 litre Spinner flasks (Integra Biosciences, #182101) in suspension in RPMI 1640 medium (Invitrogen, #21875-034) supplemented with 10% Fetal Bovine Serum (Invitrogen) at a density between 0.15×10^6 and 1.2×10^6 cells/ml. Cells were harvested by centrifugation, washed once with 1× PBS buffer (Invitrogen, #14190-094) and cell pellets were frozen in liquid nitrogen and subsequently stored at −80° C. Cells were homogenized in a Potter S homogenizer in lysis buffer: 50 mM Tris-HCl, 0.8% NP40, 5% glycerol, 150 mM NaCl, 1.5 mM MgCl2, 25 mM NaF, 1 mM sodium vanadate, 1 mM DTT, pH 7.5. One complete EDTA-free tablet (protease inhibitor cocktail, Roche Diagnostics, 1873580) per 25 ml buffer was added. The material was dounced 10 times using a mechanized POTTER S, transferred to 50 ml falcon tubes, incubated for 30 minutes on ice and spun down for 10 min at 20,000 g at 4° C. (10,000 rpm in Sorvall SLA600, precooled). The supernatant was transferred to an ultracentrifuge (UZ)-polycarbonate tube (Beckmann, 355654) and spun for 1 hour at 100.000 g at 4° C. (33.500 rpm in Ti50.2, precooled). The supernatant was transferred again to a fresh 50 ml falcon tube, the protein concentration was determined by a Bradford assay (BioRad) and samples containing 50 mg of protein per aliquot were prepared. The samples were immediately used for experiments or frozen in liquid nitrogen and stored frozen at −80° C.
# (§5) Cell lysate (approximately 50 mg protein per plate) was thawed in a water bath at room temperature and then kept on ice. To the thawed cell lysate 1× DP 0.8% NP40 buffer containing protease inhibitors (1 tablet for 25 ml buffer; EDTA-free protease inhibitor cocktail; Roche Diagnostics 1873580) was added in order to reach a final protein concentration of 5 mg/ml total protein. The diluted cell lysate was stored on ice. Mixed Molt4/Ramos lysate was prepared by combining one volume of Molt4 lysate and two volumes of Ramos lysate (ratio 1:2).
# (§6) To a 96 well filter plate (Multiscreen HTS, BV Filter Plates, Millipore #MSBVN1250) were added per well: 100 μl affinity matrix (3% beads slurry), 3 μl of compound solution, and 50 μl of diluted lysate. Plates were sealed and incubated for three hours in a cold room on a plate shaker (Heidolph tiramax 1000) at 750 rpm. Afterwards the plate was washed twice with 230 μl washing buffer (1× DP 0.4% NP40). […]
# JAK2 = target: T2, JAK2 (Homo sapiens, UniProt O60674); assay: kinobeads assay (competition with affinity matrix in mixed Molt4/Ramos cell lysate, dot blot detection), JAK2; assay type: binding; conditions: activity level
# T2 construct: endogenous in cells; host or cells: Mixed Molt4 / Ramos cell lysate (1:2)
# Method: as §1, §2, §3, §4, §5, §6
# [2] = reviewed in Cetkovic-Cvrlje and Ucken, 2004; cited from earlier work
# [3] = NOD mouse model of type I diabetes; cited from earlier work
# T2 sequence (O60674 whole entry): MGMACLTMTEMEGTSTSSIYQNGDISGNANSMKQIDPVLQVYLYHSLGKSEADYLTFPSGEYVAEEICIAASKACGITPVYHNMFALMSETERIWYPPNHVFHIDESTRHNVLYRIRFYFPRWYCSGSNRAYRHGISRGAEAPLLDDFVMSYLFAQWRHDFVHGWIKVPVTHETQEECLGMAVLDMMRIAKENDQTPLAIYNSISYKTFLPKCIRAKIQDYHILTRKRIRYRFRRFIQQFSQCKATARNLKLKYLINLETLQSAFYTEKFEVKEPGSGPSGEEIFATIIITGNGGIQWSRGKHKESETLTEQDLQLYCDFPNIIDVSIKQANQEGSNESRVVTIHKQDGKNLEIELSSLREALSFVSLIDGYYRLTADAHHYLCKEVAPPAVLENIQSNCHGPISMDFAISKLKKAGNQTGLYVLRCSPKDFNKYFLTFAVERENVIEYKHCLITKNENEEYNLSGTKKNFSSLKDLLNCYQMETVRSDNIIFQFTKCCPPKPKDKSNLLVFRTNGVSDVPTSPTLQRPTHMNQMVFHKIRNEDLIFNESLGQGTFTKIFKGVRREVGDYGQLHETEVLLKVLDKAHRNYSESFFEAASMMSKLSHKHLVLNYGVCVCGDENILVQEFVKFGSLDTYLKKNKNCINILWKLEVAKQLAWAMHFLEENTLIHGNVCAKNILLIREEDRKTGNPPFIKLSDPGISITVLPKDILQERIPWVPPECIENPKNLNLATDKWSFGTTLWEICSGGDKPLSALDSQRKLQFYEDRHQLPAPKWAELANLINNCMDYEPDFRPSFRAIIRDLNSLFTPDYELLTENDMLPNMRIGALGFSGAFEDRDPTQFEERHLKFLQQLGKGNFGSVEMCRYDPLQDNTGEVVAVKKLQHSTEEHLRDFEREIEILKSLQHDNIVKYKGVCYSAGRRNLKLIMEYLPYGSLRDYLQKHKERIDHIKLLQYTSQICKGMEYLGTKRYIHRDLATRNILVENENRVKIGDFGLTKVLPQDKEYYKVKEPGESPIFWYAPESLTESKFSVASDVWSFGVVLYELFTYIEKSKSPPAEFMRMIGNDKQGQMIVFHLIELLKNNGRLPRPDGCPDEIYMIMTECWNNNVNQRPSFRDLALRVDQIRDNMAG
SMILES,efficacy in an animal model of organ transplantation [1],IC50 (JAK3),IC50 (JAK2),severity of GVHD [2],spontaneous autoimmune diabetes development [3]
"C[C@@H]1CCN(C(=O)CC#N)C[C@@H]1N(C)c1ncnc2[nH]ccc12 [CP-690,550]",show efficacy,,,,
"CS(=O)(=O)Nc1c(F)cccc1Nc1nc(Nc2cc(-n3cnnn3)ccc2F)ncc1Cl [Example 55, N-(2-(5-chloro-2-(2-fluoro-5-(1H-tetrazol-1-yl)phenylamino)pyrimidin-4-ylamino)-6-fluorophenyl)methanesulfonamide]",,< 100 nM,100 to 1000 nM,,
"CNC(=O)c1cccc(Nc2ncc(Cl)c(Nc3ccccc3NS(C)(=O)=O)n2)c1F [Example 56, 3-(5-chloro-4-(2-(methylsulfonamido)phenylamino)pyrimidin-2-ylamino)-2-fluoro-N-methylbenzamide]",,< 100 nM,1000 to 10000 nM,,
"CS(=O)(=O)Nc1ccccc1Nc1nc(Nc2cc(F)c(C(=O)NC3CC3)cc2F)ncc1Cl [Example 57, 4-((5-chloro-4-((2-(methylsulfonamido)phenyl)amino)pyrimidin-2-yl)amino)-N-cyclopropyl-2,5-difluorobenzamide]",,< 100 nM,> 10000 nM,,
"CC(C)NC(=O)c1ccc(Nc2ncc(Cl)c(Nc3ccccc3NS(C)(=O)=O)n2)c(F)c1F [Example 58, 4-((5-chloro-4-((2-(methylsulfonamido)phenyl)amino)pyrimidin-2-yl)amino)-2,3-difluoro-N-isopropylbenzamide]",,< 100 nM,1000 to 10000 nM,,
"Cc1cccc(Nc2nc(Nc3cc(C(=O)NCCO)ccc3F)ncc2Cl)c1NS(C)(=O)=O [Example 59, 3-((5-chloro-4-((3-methyl-2-(methylsulfonamido)phenyl)amino)pyrimidin-2-yl)amino)-4-fluoro-N-(2-hydroxyethyl)benzamide]",,< 100 nM,> 10000 nM,,
"CCNC(=O)c1ccc(Nc2ncc(Cl)c(Nc3cccc(F)c3NS(C)(=O)=O)n2)c(F)c1 [Example 60, 4-((5-chloro-4-((3-fluoro-2-(methylsulfonamido)phenyl)amino)pyrimidin-2-yl)amino)-N-ethyl-3-fluorobenzamide]",,< 100 nM,> 10000 nM,,
"CCNC(=O)c1ccc(Nc2ncc(Cl)c(Nc3ccccc3NS(C)(=O)=O)n2)c(F)c1 [Example 61, 4-((5-chloro-4-((2-(methylsulfonamido)phenyl)amino)pyrimidin-2-yl)amino)-N-ethyl-3-fluorobenzamide]",,< 100 nM,1000 to 10000 nM,,
"CS(=O)(=O)Nc1c(F)cc(F)cc1Nc1nc(Nc2cc(C(=O)NC3CC3)ccc2F)ncc1Cl [Example 62, 3-((5-chloro-4-((3,5-difluoro-2-(methylsulfonamido)phenyl)amino)pyrimidin-2-yl)amino)-N-cyclopropyl-4-fluorobenzamide]",,100 to 1000 nM,1000 to 10000 nM,,
"CNC(=O)c1ccc(F)c(Nc2ncc(Cl)c(Nc3cc(F)c(F)cc3NS(C)(=O)=O)n2)c1 [Example 63, 3-(5-chloro-4-(4,5-difluoro-2-(methylsulfonamido)phenylamino)pyrimidin-2-ylamino)-4-fluoro-N-methylbenzamide]",,100 to 1000 nM,1000 to 10000 nM,,
COc1cc2ncnc(Nc3ccc(O)cc3)c2cc1OC [JANEX-1],,,,attenuate the severity of GVHD,prevent spontaneous autoimmune diabetes development

# Reference: US20120040955A1 (priority 2009, published 2012)
